Test results as given in paper PMC11233931, “Remodeling tumor‐associated macrophage for anti‐cancer effects by rational design of irreversible inhibition of mitogen‐activated protein kinase‐activated protein kinase 2” (MedComm, 2024).

Tests used:
[1] = molecular target: T1, 380 human recombinant protein kinases (Homo sapiens, UniProt O75747); assay: Eurofins kinase selectivity profile against 380 other human recombinant kinases (Table S2); format: biochemical; conditions: PI3KC2γ(h), read-out: Inhibition rate (%)
T1 construct: purchased Eurofins (Celle Lévescault)
T1 sequence (O75747 1-1486): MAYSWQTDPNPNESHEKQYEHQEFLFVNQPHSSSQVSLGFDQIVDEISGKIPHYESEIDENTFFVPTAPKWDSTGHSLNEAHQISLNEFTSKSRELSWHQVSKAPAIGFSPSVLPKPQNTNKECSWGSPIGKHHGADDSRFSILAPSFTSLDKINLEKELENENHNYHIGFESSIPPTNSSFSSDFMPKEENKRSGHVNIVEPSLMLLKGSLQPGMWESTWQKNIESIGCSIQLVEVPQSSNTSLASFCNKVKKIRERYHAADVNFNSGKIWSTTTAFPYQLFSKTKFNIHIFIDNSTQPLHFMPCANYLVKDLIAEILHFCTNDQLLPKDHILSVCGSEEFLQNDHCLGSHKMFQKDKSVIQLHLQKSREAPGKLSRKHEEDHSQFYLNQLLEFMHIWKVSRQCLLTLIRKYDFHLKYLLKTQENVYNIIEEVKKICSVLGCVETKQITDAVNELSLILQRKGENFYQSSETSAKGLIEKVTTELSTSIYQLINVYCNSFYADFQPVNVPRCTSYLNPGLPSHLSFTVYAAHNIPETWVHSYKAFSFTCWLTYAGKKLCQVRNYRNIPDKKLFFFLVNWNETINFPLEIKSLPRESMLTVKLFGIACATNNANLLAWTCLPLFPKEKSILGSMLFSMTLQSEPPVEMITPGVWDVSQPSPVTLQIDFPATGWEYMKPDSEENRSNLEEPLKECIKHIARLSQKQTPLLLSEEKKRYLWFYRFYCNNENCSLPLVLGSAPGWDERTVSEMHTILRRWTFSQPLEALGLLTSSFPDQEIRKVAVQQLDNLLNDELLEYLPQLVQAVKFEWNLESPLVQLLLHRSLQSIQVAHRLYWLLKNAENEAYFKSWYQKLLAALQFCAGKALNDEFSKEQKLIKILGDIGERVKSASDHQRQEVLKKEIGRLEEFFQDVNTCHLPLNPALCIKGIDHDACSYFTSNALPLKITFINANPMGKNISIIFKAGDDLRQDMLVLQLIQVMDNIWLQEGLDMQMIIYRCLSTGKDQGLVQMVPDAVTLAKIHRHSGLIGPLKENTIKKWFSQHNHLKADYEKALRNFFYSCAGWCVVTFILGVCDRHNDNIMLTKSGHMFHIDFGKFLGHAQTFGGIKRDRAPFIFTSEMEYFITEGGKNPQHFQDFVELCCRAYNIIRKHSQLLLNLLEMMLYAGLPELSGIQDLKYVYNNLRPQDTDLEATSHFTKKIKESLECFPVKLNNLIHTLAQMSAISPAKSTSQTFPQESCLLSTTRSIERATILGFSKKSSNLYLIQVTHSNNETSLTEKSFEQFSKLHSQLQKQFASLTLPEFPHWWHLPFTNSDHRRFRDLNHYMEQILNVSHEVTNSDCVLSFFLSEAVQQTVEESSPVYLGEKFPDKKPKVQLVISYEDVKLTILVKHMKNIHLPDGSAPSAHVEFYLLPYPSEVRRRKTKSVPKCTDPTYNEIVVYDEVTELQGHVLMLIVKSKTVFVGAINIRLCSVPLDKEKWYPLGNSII
Procedure, shortened: (§1)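 The inhibitor was sent to a contract lab and screened at various concentrations against 380 human recombinant protein kinases. This served as a counter-screen for MK2 specificity.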

[2] = molecular target: T2, 380 human recombinant protein kinases (Homo sapiens, UniProt P21709); assay: as above; format: biochemical; conditions: EphA1(h), read-out: Inhibition rate
T2 construct: purchased Eurofins (Celle Lévescault)
T2 sequence (P21709 26-976): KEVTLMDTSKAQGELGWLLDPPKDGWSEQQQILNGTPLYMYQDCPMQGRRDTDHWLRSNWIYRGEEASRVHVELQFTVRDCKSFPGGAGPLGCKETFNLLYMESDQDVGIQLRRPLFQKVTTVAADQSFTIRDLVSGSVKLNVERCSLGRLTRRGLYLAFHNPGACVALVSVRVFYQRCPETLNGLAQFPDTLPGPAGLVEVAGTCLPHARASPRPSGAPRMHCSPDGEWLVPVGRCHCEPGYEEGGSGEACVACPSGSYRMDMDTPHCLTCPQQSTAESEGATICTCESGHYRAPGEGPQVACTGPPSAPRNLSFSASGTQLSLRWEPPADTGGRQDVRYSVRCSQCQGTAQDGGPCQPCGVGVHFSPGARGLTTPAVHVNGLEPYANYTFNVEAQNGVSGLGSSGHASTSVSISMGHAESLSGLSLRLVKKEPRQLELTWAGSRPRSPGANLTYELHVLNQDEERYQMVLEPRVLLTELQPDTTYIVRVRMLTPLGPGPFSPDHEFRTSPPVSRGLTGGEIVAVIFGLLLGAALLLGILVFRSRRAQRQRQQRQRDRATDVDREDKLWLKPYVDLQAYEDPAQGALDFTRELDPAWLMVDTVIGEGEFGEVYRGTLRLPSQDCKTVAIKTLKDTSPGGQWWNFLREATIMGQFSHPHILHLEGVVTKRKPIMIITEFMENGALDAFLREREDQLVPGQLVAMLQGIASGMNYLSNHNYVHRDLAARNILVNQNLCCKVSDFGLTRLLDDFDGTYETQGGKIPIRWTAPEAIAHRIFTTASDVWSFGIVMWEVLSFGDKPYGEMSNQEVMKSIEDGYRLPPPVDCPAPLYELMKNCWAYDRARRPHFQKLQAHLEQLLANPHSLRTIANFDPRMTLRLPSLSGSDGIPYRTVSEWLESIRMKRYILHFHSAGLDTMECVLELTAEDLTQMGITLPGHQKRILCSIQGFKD
Procedure, shortened: as §1

C=CC(=O)Nc1cc(-c2cc(-c3cc4c([nH]3)CCNC4=O)ccn2)ccc1OC(F)(F)F [compound 11]
inhibition at 0.01 µM ([1]; 10 nM): 6%
inhibition at 0.1 µM ([1]; 100 nM): 13%
inhibition at 1 µM ([1]; 1000 nM): 12%
inhibition at 0.01 µM ([2]; 10 nM): -2%
inhibition at 0.1 µM ([2]; 100 nM): -5%
inhibition at 1 µM ([2]; 1000 nM): -2%
